Calls of active or inactive are those of the source. The calls are words filed in the database; no cut-off is given here.
Legend:
Cryptococcus neoformans [1] = assay: Antifungal activity against Cryptococcus neoformans H99 assessed as fungal growth inhibition incubated for 72 hrs in presence of Fluconazole by broth microdilution method; format: functional
[Candida] auris [2] = Antifungal activity against Candida auris CBS 12372 assessed as fungal growth inhibition incubated for 48 hrs in presence of Fluconazole by broth microdilution method; format: functional; settings: Candidozyma auris
Cryptococcus neoformans [3] = assay: Antifungal activity against Cryptococcus neoformans clinical isolate HN17 assessed as fungal growth inhibition incubated for 72 hrs in presence of Fluconazole by broth microdilution method; format: functional
Cryptococcus neoformans [4] = assay: Antifungal activity against Cryptococcus neoformans clinical isolate HN19 assessed as fungal growth inhibition incubated for 72 hrs in presence of Fluconazole by broth microdilution method; format: functional
Cryptococcus neoformans [5] = assay: Antifungal activity against Cryptococcus neoformans clinical isolate HN20 assessed as fungal growth inhibition incubated for 72 hrs in presence of Fluconazole by broth microdilution method; format: functional
[6] = test system: Cryptococcus gattii species complex; assay: Synergistic antifungal activity against Cryptococcus gattii E566 assessed as fractional inhibitory concentration index incubated for 72 hrs in presence of Fluconazole by broth microdilution method; format: functional
[7] = test system: Cryptococcus deuterogattii; assay: Synergistic antifungal activity against Cryptococcus gattii WM178 assessed as fractional inhibitory concentration index incubated for 72 hrs in presence of Fluconazole by broth microdilution method; format: functional, Cryptococcus gattii species complex
Candida tropicalis = assay: Synergistic antifungal activity against Candida tropicalis ATCC20026 assessed as fractional inhibitory concentration index incubated for 48 hrs in presence of Fluconazole by broth microdilution method; format: functional
Cryptococcus neoformans [8] = assay: Synergistic antifungal activity against Cryptococcus neoformans clinical isolate HN2-40 assessed as fractional inhibitory concentration index incubated for 72 hrs in presence of Fluconazole by broth microdilution method; format: functional
Cryptococcus neoformans [9] = assay: Synergistic antifungal activity against Cryptococcus neoformans clinical isolate HN19 assessed as fractional inhibitory concentration index incubated for 72 hrs in presence of Fluconazole by broth microdilution method; format: functional
Cryptococcus neoformans [10] = assay: Synergistic antifungal activity against Cryptococcus neoformans clinical isolate SH68 assessed as fractional inhibitory concentration index incubated for 72 hrs in presence of Fluconazole by broth microdilution method; format: functional
Cryptococcus neoformans [11] = assay: Synergistic antifungal activity against Cryptococcus neoformans clinical isolate 443 assessed as fractional inhibitory concentration index incubated for 72 hrs in presence of Fluconazole by broth microdilution method; format: functional
[12] = test system: Cryptococcus gattii species complex; assay: Synergistic antifungal activity against Cryptococcus gattii clinical isolate SCZ20024 assessed as fractional inhibitory concentration index incubated for 72 hrs in presence of Fluconazole by broth microdilution method; format: functional
Cryptococcus neoformans [13] = assay: Antifungal activity against Cryptococcus neoformans H99 assessed as reduction on fungal growth at 8 ug/ml incubated for 48 hrs by plate reader assay; format: functional, organism-based; settings: dose 8.0 µg/ml
[14] = test system: Cryptococcus deuterogattii; assay: Antifungal activity against Cryptococcus gattii WM178 infected in Wax moth larvae assessed as survival rate at 10 mg/kg measured after 9 days in presence of Fluconazole by Kaplan-Meier method; format: functional, Cryptococcus gattii species complex; settings: WM178, 216 h, time 9 day
[15] = MRT (0 to t) in Sprague-Dawley rat at 2 mg/kg,iv by LC-MS/MS analysis; format: ADME, organism-based; settings: in vivo
[16] = Volume of distribution at steady state in Sprague-Dawley rat at 2 mg/kg,iv by LC-MS/MS analysis; format: ADME, organism-based; settings: in vivo
[17] = Cmax in Sprague-Dawley rat at 5 mg/kg,po by LC-MS/MS analysis; format: ADME, organism-based; set-up: dose 5 mg/kg, route po; settings: in vivo
[18] = Half life in Sprague-Dawley rat at 5 mg/kg,po by LC-MS/MS analysis; format: ADME, organism-based; settings: in vivo
[19] = Tmax in Sprague-Dawley rat at 5 mg/kg,po by LC-MS/MS analysis; format: ADME, organism-based; settings: in vivo
[20] = MRT (0 to t) in Sprague-Dawley rat at 5 mg/kg,po by LC-MS/MS analysis; format: ADME, organism-based; settings: in vivo
[21] = Cytotoxicity against human Caco-2 cells assessed as cell growth inhibition incubated for 24 hrs by CCK-8 assay; format: toxicity, cell-based
[Candida] auris [22] = Antifungal activity against Candida auris CBS 12372 assessed as fungal growth inhibition incubated for 48 hrs in presence of P163-0892 by broth microdilution method; format: functional; settings: Candidozyma auris
Cryptococcus neoformans [23] = assay: Antifungal activity against Cryptococcus neoformans clinical isolate 56992 assessed as fungal growth inhibition incubated for 72 hrs in presence of P163-0892 by broth microdilution method; format: functional
Cryptococcus neoformans [24] = assay: Antifungal activity against Cryptococcus neoformans clinical isolate HN2 assessed as fungal growth inhibition incubated for 72 hrs in presence of P163-0892 by broth microdilution method; format: functional
Cryptococcus neoformans [25] = assay: Antifungal activity against Cryptococcus neoformans clinical isolate HN2-40 assessed as fungal growth inhibition incubated for 72 hrs in presence of P163-0892 by broth microdilution method; format: functional
Cryptococcus neoformans [26] = assay: Antifungal activity against Cryptococcus neoformans clinical isolate BJ3 assessed as fungal growth inhibition incubated for 72 hrs in presence of P163-0892 by broth microdilution method; format: functional
Cryptococcus neoformans [27] = assay: Antifungal activity against Cryptococcus neoformans clinical isolate SH68 assessed as fungal growth inhibition incubated for 72 hrs in presence of P163-0892 by broth microdilution method; format: functional
Cryptococcus neoformans [28] = assay: Antifungal activity against Cryptococcus neoformans clinical isolate 444 assessed as fungal growth inhibition incubated for 72 hrs in presence of P163-0892 by broth microdilution method; format: functional
[29] = test system: Cryptococcus gattii species complex; assay: Antifungal activity against Cryptococcus gattii clinical isolate SCZ20031 assessed as fungal growth inhibition incubated for 72 hrs in presence of P163-0892 by broth microdilution method; format: functional
[30] = test system: Cryptococcus deuterogattii; assay: Synergistic antifungal activity against Cryptococcus gattii WM178 assessed as fractional inhibitory concentration index incubated for 72 hrs in presence of P163-0892 by broth microdilution method; format: functional, Cryptococcus gattii species complex
Cryptococcus gattii = assay: Synergistic antifungal activity against Cryptococcus gattii WM179 assessed as fractional inhibitory concentration index incubated for 72 hrs in presence of P163-0892 by broth microdilution method; format: functional, Cryptococcus gattii species complex
Candida albicans = assay: Synergistic antifungal activity against Candida albicans SC5314 assessed as fractional inhibitory concentration index incubated for 48 hrs in presence of P163-0892 by broth microdilution method; format: functional
Cryptococcus neoformans [31] = assay: Synergistic antifungal activity against Cryptococcus neoformans clinical isolate HN1 assessed as fractional inhibitory concentration index incubated for 72 hrs in presence of P163-0892 by broth microdilution method; format: functional
Cryptococcus neoformans [32] = assay: Synergistic antifungal activity against Cryptococcus neoformans clinical isolate HN2-40 assessed as fractional inhibitory concentration index incubated for 72 hrs in presence of P163-0892 by broth microdilution method; format: functional
Cryptococcus neoformans [33] = assay: Synergistic antifungal activity against Cryptococcus neoformans clinical isolate SH68 assessed as fractional inhibitory concentration index incubated for 72 hrs in presence of P163-0892 by broth microdilution method; format: functional
Cryptococcus neoformans [34] = assay: Synergistic antifungal activity against Cryptococcus neoformans clinical isolate 445 assessed as fractional inhibitory concentration index incubated for 72 hrs in presence of P163-0892 by broth microdilution method; format: functional
[35] = test system: Cryptococcus gattii species complex; assay: Synergistic antifungal activity against Cryptococcus gattii clinical isolate SCZ20024 assessed as fractional inhibitory concentration index incubated for 72 hrs in presence of P163-0892 by broth microdilution method; format: functional
Cryptococcus neoformans [36] = assay: Antifungal activity against Cryptococcus neoformans H99 infected in Wax moth larvae assessed as reduction on fungal burden at 10 mg/kg measured after 9 days in presence of P163-0892 by 10 fold serial dilution method; format: functional; settings: time 9 day

CCCCNC(=O)c1c(O)c2sccc2n(Cc2ccccc2)c1=O
MIC (Cryptococcus neoformans [1]): 0.0625 µg/mL | MIC ([Candida] auris [2]): 1 µg/mL | MIC (Cryptococcus neoformans [3]): 0.0313 µg/mL | MIC (Cryptococcus neoformans [4]): 0.0313 µg/mL | MIC (Cryptococcus neoformans [5]): 0.0625 µg/mL | fractional inhibitory concentration index (FICI) [6]: 0.188 | fractional inhibitory concentration index (FICI) [7]: 0.25 | fractional inhibitory concentration index (FICI) (Candida tropicalis): 0.516 | fractional inhibitory concentration index (FICI) (Cryptococcus neoformans [8]): 0.188 | fractional inhibitory concentration index (FICI) (Cryptococcus neoformans [9]): 0.281 | fractional inhibitory concentration index (FICI) (Cryptococcus neoformans [10]): 0.25 | fractional inhibitory concentration index (FICI) (Cryptococcus neoformans [11]): 0.156 | fractional inhibitory concentration index (FICI) [12]: 0.313 | Activity (Cryptococcus neoformans [13]): Active | survival at 10 mg/kg [14]: 70% | MRT(t) [15]: 2.63 h | Vdss [16]: 7.12 L/kg | Cmax [17]: 2.97 ng/mL | half-life [18]: 918 min | Tmax [19]: 3.17 min | MRT last [20]: 3.83 h | IC50 at 24 h [21]: > 256 µg/mL

OC(Cn1cncn1)(Cn1cncn1)c1ccc(F)cc1F [FLUCONAZOLE]
MIC ([Candida] auris [22]): > 64 µg/mL | MIC (Cryptococcus neoformans [23]): 0.25 µg/mL | MIC (Cryptococcus neoformans [24]): 0.25 µg/mL | MIC (Cryptococcus neoformans [25]): 0.125 µg/mL | MIC (Cryptococcus neoformans [26]): 0.25 µg/mL | MIC (Cryptococcus neoformans [27]): 1 µg/mL | MIC (Cryptococcus neoformans [28]): 0.5 µg/mL | MIC [29]: 1 µg/mL | fractional inhibitory concentration index (FICI) [30]: 0.25 | fractional inhibitory concentration index (FICI) (Cryptococcus gattii): 0.25 | fractional inhibitory concentration index (FICI) (Candida albicans): 1.008 | fractional inhibitory concentration index (FICI) (Cryptococcus neoformans [31]): 0.125 | fractional inhibitory concentration index (FICI) (Cryptococcus neoformans [32]): 0.188 | fractional inhibitory concentration index (FICI) (Cryptococcus neoformans [33]): 0.25 | fractional inhibitory concentration index (FICI) (Cryptococcus neoformans [34]): 0.375 | fractional inhibitory concentration index (FICI) [35]: 0.313 | Activity (Cryptococcus neoformans [36]): 4.8 log10CFU/g
